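Values below derive from 48-hour exposures of cells grown in 96-well plates, with endpoints linearly interpolated between the two concentrations bracketing the appropriate inhibition level. GI50 marks 50% less growth.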 Active and inactive are the calls of the source. No stated cut-off is given here; in the data, active = GI50 up to about 1.1 µM and inactive = higher.
Columns and labels:
Assay in all cases: NCI-60 cell line screen, 48 h
NCI-H23 = test system: NCI-H23
ACHN = test system: ACHN
HOP-92 = test system: HOP-92
SF-268 = test system: SF-268
UACC-257 = test system: UACC-257
COLO 205 = test system: COLO 205
NCI-H522 = test system: NCI-H522
CAKI-1 = test system: CAKI-1
Malme-3M = test system: Malme-3M
U-251 = test system: U-251
OVCAR-5 = test system: OVCAR-5
MOLT-4 = test system: MOLT-4
LOX IMVI = test system: LOX IMVI
SF-539 = test system: SF-539
NCI-H226 = test system: NCI-H226
SF-295 = test system: SF-295
TK-10 = test system: TK-10
SR = test system: SR

Measured: GI50

O=C(O)[C@H](NS(=O)(=O)c1ccc2ccccc2c1)c1ccccc1
inactive: NCI-H23 > 100 µM | ACHN > 100 µM | HOP-92 45.3 µM | SF-268 > 100 µM | UACC-257 > 100 µM | COLO 205 > 100 µM | NCI-H522 > 100 µM | CAKI-1 > 100 µM | Malme-3M > 100 µM | U-251 > 100 µM | OVCAR-5 > 100 µM | MOLT-4 > 100 µM | LOX IMVI > 100 µM | SF-539 > 100 µM

O=CC[C@H]1CCc2ccccc2C12CCC(=O)CC2
inactive: ACHN > 100 µM | NCI-H226 51.4 µM | SF-295 > 100 µM | HOP-92 68.4 µM | SF-268 76.6 µM | UACC-257 60.8 µM | COLO 205 94.2 µM | NCI-H522 43.2 µM | CAKI-1 > 100 µM | Malme-3M 74.5 µM | OVCAR-5 > 100 µM | MOLT-4 30.5 µM | LOX IMVI 62.7 µM | SF-539 6.21 µM

O=C1C2C(C(=O)N1c1ccccc1)C1c3ccccc3C2C2C(=O)N(c3ccccc3)C(=O)C21 (stereo not drawn)
inactive: NCI-H23 18.5 µM | ACHN 6.47 µM | NCI-H226 28.6 µM | SF-295 3.48 µM | HOP-92 6.82 µM | SF-268 5.56 µM | UACC-257 > 100 µM | COLO 205 3.89 µM | NCI-H522 2.46 µM | CAKI-1 11.3 µM | Malme-3M 3.9 µM | TK-10 > 100 µM | U-251 2.82 µM | OVCAR-5 15.1 µM | MOLT-4 20.7 µM | LOX IMVI 10.5 µM | SF-539 3.56 µM

CC1(C)Oc2ccccc2N2O[C@@H]3C(=O)N(c4ccccc4)C(=O)[C@@H]3C21c1ccccc1 (stereo partly drawn)
inactive: NCI-H23 97.7 µM | NCI-H226 55.3 µM | SF-295 15.7 µM | SF-268 33.9 µM | UACC-257 34 µM | COLO 205 39.1 µM | NCI-H522 28.7 µM | CAKI-1 24.9 µM | Malme-3M 21.8 µM | TK-10 17.9 µM | U-251 25 µM | OVCAR-5 78.3 µM | MOLT-4 27.1 µM | SF-539 17.3 µM

O=C1C2=C(c3ccccc31)C(c1ccccc1Cl)NC(S)=N2 (stereo not drawn)
inactive: NCI-H23 39.4 µM | ACHN 41.8 µM | NCI-H226 8.65 µM | SF-295 51.1 µM | HOP-92 16.5 µM | SF-268 51.5 µM | UACC-257 51.3 µM | COLO 205 69.3 µM | NCI-H522 31.8 µM | CAKI-1 38.2 µM | Malme-3M 39 µM | TK-10 75.2 µM | U-251 77.6 µM | OVCAR-5 > 100 µM | MOLT-4 31.8 µM | SF-539 97.1 µM

COC(=O)c1oc([N+](=O)[O-])c(-c2ccccc2)c1-c1ccccc1
inactive: NCI-H23 > 100 µM | ACHN > 100 µM | NCI-H226 > 100 µM | SF-295 > 100 µM | HOP-92 > 100 µM | SF-268 > 100 µM | UACC-257 > 100 µM | COLO 205 37.7 µM | NCI-H522 > 100 µM | CAKI-1 > 100 µM | Malme-3M > 100 µM | TK-10 > 100 µM | U-251 > 100 µM | OVCAR-5 > 100 µM | MOLT-4 33.6 µM | LOX IMVI 35.5 µM | SF-539 > 100 µM

N#Cc1c(N)c(C(=O)O)nn(-c2cccc(C(F)(F)F)c2)c1=O
inactive: NCI-H23 > 100 µM | SR > 100 µM | ACHN > 100 µM | SF-295 > 100 µM | HOP-92 43.4 µM | SF-268 > 100 µM | COLO 205 > 100 µM | NCI-H522 39 µM | CAKI-1 > 100 µM | Malme-3M 60 µM | TK-10 > 100 µM | U-251 > 100 µM | OVCAR-5 > 100 µM | MOLT-4 > 100 µM | LOX IMVI > 100 µM | SF-539 > 100 µM

From ChEMBL document CHEMBL1201862, “PubChem BioAssay data set” (2004)
